Where a name gives a salt, the structure may show the parent alone.
What was measured:
physchem = conditions: water

| solubility (physchem) [mg/mL] | Compound | solubility in water (Solubility in water) [mg/mL] |
| --- | --- | --- |
| 600 | CCN(CC)C(=O)C1(c2ccccc2)CC1CN (centres unmarked) [milnacipran hydrochloride] |  |
|  | baquimast | 0.23 |
